Experiments:
[1] = system: thyrotropin releasing hormone receptor/orexin receptor hetero-dimer/-oligomer (TRHR with OxR2); experiment: eBRET/BRET detection of TRHR-OxR2 association: TRHR/Rluc + tagged beta-arrestin + OxR2 as IG3 in HEK293 cells; type: cell-based; details: OxR2, FIG. 6
Method: (§1) Briefly, referring to FIGS. 1 to 3, the IGs are provided in the form of the two receptors (TRHR and OxR). One of the two is attached to an RC (IG1-RC1, IG3). A second IG (IG2-RC2) is derived from a molecule that interacts with the receptors upon ligand binding (e.g. beta-arrestin, or a mutant thereof).
Cells were seeded in 6-well plates at a density of approximately 630,000 cells/well (HEK293FT) or approximately 150,000 cells/well (COS-7) and maintained at 37° C., 5% CO2 in Complete Media (DMEM containing 0.3 mg/ml glutamine, 100 IU/ml penicillin and 100 μg/ml streptomycin (Gibco)) supplemented with 10% fetal calf serum (FCS; Gibco). Transient transfections were carried out 24 h after seeding using GeneJuice (Novagen) or Metafectene (Biontex) according to manufacturer instructions. 24 h post-transfection, cells were washed with PBS, detached using 0.05% trypsin/0.53 mM EDTA, resuspended in HEPES-buffered phenol red free Complete Media containing 5% FCS and added to a poly-L-lysine-coated white microplate (Nunc). 48 h post-transfection, eBRET assays were carried out following pre-incubation of cells with EnduRen™ (Promega) at a final concentration of 30-40 μM, at 37° C., 5% CO2 for 2 h. For original BRET studies, the HEPES-buffered phenol red free Complete Media was replaced with PBS and coelenterazine h (Molecular Probes) added to a final concentration of 5 μM immediately prior to commencing the assay. […] Filtered light emissions were sequentially measured for 3-5 s in each of the ‘donor wavelength window’ (400-475 nm) and ‘acceptor wavelength window’ (>500 nm for EGFP or 520-540 nm for EYFP, Topaz (TYFP) or Venus). The BRET signal observed between interacting proteins is normalized by subtracting the background BRET ratio. […] In the following examples, the first calculation will be used, unless the signal is described as the ‘ligand-induced BRET ratio’. […] In this case, data are shown as ‘fluorescence/luminescence’ being the ratio of light emission through the ‘acceptor wavelength window’ over the 400-475 nm emission for a particular cell sample. Unless otherwise stated, BRET signals were measured in 96-well microplates. […]
Cells not pretreated with antagonist were pretreated with PBS instead for the same amount of time. […]

[2] = system: thyrotropin releasing hormone receptor/orexin receptor hetero-dimer/-oligomer (TRHR with OxR1); experiment: eBRET: TRHR/Rluc + barr2/Venus + OxR1 as IG3 in HEK293 cells; type: cell-based; details: OxR1, FIG. 6
Method: as §1
Cells were seeded in 6-well plates at a density of approximately 630,000 cells/well (HEK293FT) or approximately 150,000 cells/well (COS-7) and maintained at 37° C., 5% CO2 in Complete Media (DMEM containing 0.3 mg/ml glutamine, 100 IU/ml penicillin and 100 μg/ml streptomycin (Gibco)) supplemented with 10% fetal calf serum (FCS; Gibco). Transient transfections were carried out 24 h after seeding using GeneJuice (Novagen) or Metafectene (Biontex) according to manufacturer instructions. 24 h post-transfection, cells were washed with PBS, detached using 0.05% trypsin/0.53 mM EDTA, resuspended in HEPES-buffered phenol red free Complete Media containing 5% FCS and added to a poly-L-lysine-coated white microplate (Nunc). 48 h post-transfection, eBRET assays were carried out following pre-incubation of cells with EnduRen™ (Promega) at a final concentration of 30-40 μM, at 37° C., 5% CO2 for 2 h. For original BRET studies, the HEPES-buffered phenol red free Complete Media was replaced with PBS and coelenterazine h (Molecular Probes) added to a final concentration of 5 μM immediately prior to commencing the assay. […] Filtered light emissions were sequentially measured for 3-5 s in each of the ‘donor wavelength window’ (400-475 nm) and ‘acceptor wavelength window’ (>500 nm for EGFP or 520-540 nm for EYFP, Topaz (TYFP) or Venus). The BRET signal observed between interacting proteins is normalized by subtracting the background BRET ratio. […] In this case, data are shown as ‘fluorescence/luminescence’ being the ratio of light emission through the ‘acceptor wavelength window’ over the 400-475 nm emission for a particular cell sample. Unless otherwise stated, BRET signals were measured in 96-well microplates. […]

[3] = system: animals studied (narcolepsy); details: cited from earlier work
[4] = 10^−6M SB-334867-A approx. 40 minutes before 10^−6M OxA
[5] = 10^−6M SB-334867-A approx. 40 minutes before 10^−6M TRH and OxA
[6] = dose- and time-dependent manner

## Cc1nc2ccc(NC(=O)Nc3ccnc4cccnc34)cc2o1.Cl [SB-334867-A, 1-(2-methylbenzoxazol-6-yl)-3-[1,5]naphthyridin-4-yl urea hydrochloride]
[1]; [4]
  effect of antagonist pretreatment on OxA-induced eBRET signal: not affected
[1]; [5]
  effect of antagonist pretreatment on TRH + OxA-induced eBRET signal: did not differ
[2]; [4]
  effect of antagonist pretreatment on OxA-induced eBRET signal: reduced
[2]; [5]
  effect of antagonist pretreatment on TRH + OxA-induced eBRET signal: reduced

## CN1C(=O)C[C@@H](C(=O)N[C@@H](Cc2c[nH]cn2)C(=O)N2CCC[C@H]2C(N)=O)NC1=O.O.O.O.O [TA-0910]
[3]; [6]
  rapid eye movement (REM) sleep: significantly reduced
  slow wave sleep (SWS): significantly reduced
[3]; in most of the animals studied
  cataplexy: completely suppressed
